ChEMBL document CHEMBL1144409, “Synthesis of new quinoxaline-2-carboxylate 1,4-dioxide derivatives as anti-Mycobacterium tuberculosis agents” (J Med Chem, 2005)
In brackets after ≈: the same amount, converted by molar mass.

Assays:
[1] = system: Mycobacterium tuberculosis; assay: In vitro actual minimum inhibitory concentration value of the compound was determined against Mycobacterium tuberculosis; format: functional
[2] = Selectivity index (ratio of IC50 and MIC) value was determined; settings: cercopithecidae
[3] = Compound was tested for cytotoxicity in Vero cells; format: cell-based; settings: Chlorocebus sabaeus
[4] = system: Mycobacterium tuberculosis; assay: In vitro minimum inhibitory concentration value against Mycobacterium tuberculosis H37Rv strain in alamar assay; format: functional
[5] = system: Mycobacterium tuberculosis; assay: In vitro minimum inhibitory concentration value against Mycobacterium tuberculosis erdman strain in alamar assay; format: functional
[6] = system: Mycobacterium tuberculosis; assay: In vitro minimum inhibitory concentration value against Mycobacterium tuberculosis H37Rv strain in bactec assay; format: functional
[7] = system: Mycobacterium tuberculosis; assay: In vitro effective concentration of the compound causing 99%reduction in residualmycobacterium tuberculosis growth after 7 days compared to untreated control; format: functional; settings: 168 h
[8] = system: Mycobacterium tuberculosis; assay: In vitro ratio of EC90 and MIC value of the compound was determined; format: functional
[9] = system: Mycobacterium tuberculosis; assay: In vitro effective concentration of the compound causing 90%reduction in residualmycobacterium tuberculosis growth after 7 days compared to untreated control; format: functional; settings: 168 h
[10] = system: Mycobacterium tuberculosis; assay: In vitro actual minimum inhibitory concentration value against Mycobacterium tuberculosis; format: functional
[11] = Compound was tested for cytotoxicity in Vero cells; Insoluble; format: cell-based, Chlorocebus sabaeus
[12] = system: Mycobacterium tuberculosis; assay: In vitro actual minimum inhibitory concentration value of the compound was determined against Mycobacterium tuberculosis H37Rv strain; Range is 0.015-0.125; format: functional

Row | Structure (SMILES) | MIC [1] [µg/mL] | SI [2] | IC50 [3] [µg/mL] | EC99 [7] [µg/mL] | Ratio [8] | EC90 [9] [µg/mL] | further results
1 | CCc1c(C(=O)OC)[n+]([O-])c2cc(F)c(F)cc2[n+]1[O-] | 1.56 (≈ 5.49 µM) | 0.77 | 1.2 (≈ 4.22 µM) | – | – | – | –
2 | C=CCc1c(C(=O)OC)[n+]([O-])c2cc(C)c(C)cc2[n+]1[O-] | > 6.25 | – | – | – | – | – | –
3 | CCOC(=O)COC(=O)c1c(CC)[n+]([O-])c2ccc(Cl)cc2[n+]1[O-] | 1.56 (≈ 4.4 µM) | 1.2 | 1.89 (≈ 5.33 µM) | – | – | – | –
4 | CCc1c(C(=O)OC)[n+]([O-])c2cc(C)c(C)cc2[n+]1[O-] | 6.25 (≈ 22.6 µM) | > 10 | > 62.5 | – | – | – | MIC [4]: 0.39 µg/mL (≈ 1.41 µM); MIC [5]: 0.39 µg/mL (≈ 1.41 µM); MIC [6]: 0.2 µg/mL (≈ 0.724 µM)
5 | C=CCc1c(C(=O)OC)[n+]([O-])c2cc(Cl)c(Cl)cc2[n+]1[O-] | 6.25 (≈ 19 µM) | 0.93 | 5.8 (≈ 17.6 µM) | – | – | – | –
6 | COC(=O)c1c(C)[n+]([O-])c2cc(Cl)c(Cl)cc2[n+]1[O-] | 0.2 (≈ 0.66 µM) | 8.4 | 1.68 (≈ 5.54 µM) | – | – | – | –
7 | COC(=O)c1c(C(C)(C)C)[n+]([O-])c2cc(C)c(C)cc2[n+]1[O-] | > 6.25 | – | – | – | – | – | –
8 | COC(=O)c1c(Cc2ccccc2)[n+]([O-])c2ccc(OC)cc2[n+]1[O-] | 0.78 (≈ 2.29 µM) | > 80.1 | > 62.5 | – | – | – | –
9 | CCc1c(C(=O)OC)[n+]([O-])c2ccccc2[n+]1[O-] | 1.56 (≈ 6.28 µM) | 30.1 | 47 (≈ 189 µM) | 3.32 | 0.56 | 0.88 (≈ 3.54 µM) | –
10 | CCc1c(C(=O)OC)[n+]([O-])c2cc(C)ccc2[n+]1[O-] | 1.56 (≈ 5.95 µM) | > 40.1 | > 62.5 | – | – | – | –
11 | COC(=O)c1c(C)[n+]([O-])c2ccccc2[n+]1[O-] | 1.56 (≈ 6.66 µM) | > 6.41 | > 10 | – | – | – | –
12 | COCCc1c(C(=O)OC)[n+]([O-])c2cc(Cl)c(Cl)cc2[n+]1[O-] | 0.39 (≈ 1.12 µM) | 11.5 | 4.5 (≈ 13 µM) | > 1.56 | >4 | > 1.56 | –
13 | COC(=O)c1c(C)[n+]([O-])c2ccc(OC)cc2[n+]1[O-] | 1.56 (≈ 5.9 µM) | 33.7 | 52.6 (≈ 199 µM) | – | – | – | –
14 | CCc1c(C(=O)OC)[n+]([O-])c2cc(Cl)c(Cl)cc2[n+]1[O-] | < 0.2 | > 20 | 4 (≈ 12.6 µM) | 5.99 | >3.15 | 0.63 (≈ 1.99 µM) | –
15 | CCc1c(C(=O)OC)[n+]([O-])c2cc(Cl)ccc2[n+]1[O-] | 0.2 (≈ 0.708 µM) | > 50 | > 10 | 1.14 | 2.3 | 0.46 (≈ 1.63 µM) | –
16 | COC(=O)c1c(C(C)(C)C)[n+]([O-])c2ccc(Cl)cc2[n+]1[O-] | > 6.25 | – | – | – | – | – | –
17 | COC(=O)c1c(Cc2ccccc2)[n+]([O-])c2ccccc2[n+]1[O-] | 0.1 (≈ 0.322 µM) | 470 | 47 (≈ 151 µM) | > 2 | 1.5 | 0.15 (≈ 0.483 µM) | –
18 | COC(=O)c1c(C(C)(C)C)[n+]([O-])c2cc(Cl)c(Cl)cc2[n+]1[O-] | > 6.25 | – | – | – | – | – | –
19 | COC(=O)c1c(Cc2ccccc2)[n+]([O-])c2cc(F)c(F)cc2[n+]1[O-] | > 6.25 | – | – | – | – | – | –
20 | COC(=O)c1c(C)[n+]([O-])c2ccc(C)cc2[n+]1[O-] | 1.56 (≈ 6.28 µM) | > 40.1 | > 62.5 | 5.83 | 1.24 | 1.94 (≈ 7.82 µM) | –
21 | COC(=O)c1c(Cc2ccccc2)[n+]([O-])c2ccc(Cl)cc2[n+]1[O-] | 0.1 (≈ 0.29 µM) | 76 | 7.6 (≈ 22 µM) | 0.08 | 0.01 | 0.0005 (≈ 0.00145 µM) | –
22 | COC(=O)c1c(C(C)(C)C)[n+]([O-])c2ccccc2[n+]1[O-] | > 6.25 | – | – | – | – | – | –
23 | COC(=O)c1c(Cc2ccccc2)[n+]([O-])c2ccc(C)cc2[n+]1[O-] | 0.39 (≈ 1.2 µM) | 144 | 56 (≈ 173 µM) | 3.79 | 2.9 | 1.13 (≈ 3.48 µM) | –
24 | CCOC(=O)COC(=O)c1c(CC)[n+]([O-])c2cc(Cl)c(Cl)cc2[n+]1[O-] | 0.2 (≈ 0.514 µM) | 6.1 | 1.22 (≈ 3.13 µM) | – | – | – | –
25 | COC(=O)c1c(C)[n+]([O-])c2cc(C)c(C)cc2[n+]1[O-] | 3.13 (≈ 11.9 µM) | > 20 | > 62.5 | 6.15 | 0.52 | 1.64 (≈ 6.25 µM) | –
26 | COC(=O)c1c(Cc2ccccc2)[n+]([O-])c2cc(Cl)c(Cl)cc2[n+]1[O-] | – | – | – | – | – | – | MIC [4]: ≤ 3.13 µg/mL; MIC [5]: ≤ 3.13 µg/mL; MIC [6]: 6.25 µg/mL (≈ 16.5 µM); MIC [10]: 6.25 µg/mL (≈ 16.5 µM)
27 | COC(=O)c1c(C)[n+]([O-])c2cc(F)c(F)cc2[n+]1[O-] | 0.39 (≈ 1.44 µM) | 3.8 | 1.48 (≈ 5.48 µM) | – | – | – | –
28 | COC(=O)c1c(Cc2ccccc2)[n+]([O-])c2cc(C)c(C)cc2[n+]1[O-] | 3.13 (≈ 9.25 µM) | – | – | – | – | – | IC50 [11]: Insoluble
29 | CCc1c(C(=O)OC)[n+]([O-])c2cc(OC)ccc2[n+]1[O-] | 6.25 (≈ 22.5 µM) | 6.4 | 39.9 (≈ 144 µM) | – | – | – | –
30 | CO[C@H]1/C=C/O[C@@]2(C)Oc3c(C)c(O)c4c(O)c(c(/C=N/N5CCN(C)CC5)c(O)c4c3C2=O)NC(=O)/C(C)=C\C=C\[C@H](C)[C@H](O)[C@@H](C)[C@@H](O)[C@@H](C)[C@H](OC(C)=O)[C@@H]1C [RIFAMPIN] | – | – | – | – | – | – | MIC [12]: 0.125 µg/mL (≈ 0.152 µM)
